Laboratory results as given in publication PMC12289626, “Aloin protects against UVB-induced apoptosis by modulating integrated signaling pathways” (Frontiers in Pharmacology, 2025).

How the values were obtained:
p38α = biological target: T1, p38α (Homo sapiens, UniProt Q16539); experiment: ADP-Glo kinase assay with Promega p38α Kinase Enzyme System; type: biochemical
T1 construct: gene MAPK14

JNK1 = biological target: T2, JNK1 (Homo sapiens, UniProt P45983); experiment: ADP-Glo kinase assay with Promega JNK1 Kinase Enzyme System; type: biochemical
T2 construct: gene MAPK8
T2 sequence (P45983 whole entry): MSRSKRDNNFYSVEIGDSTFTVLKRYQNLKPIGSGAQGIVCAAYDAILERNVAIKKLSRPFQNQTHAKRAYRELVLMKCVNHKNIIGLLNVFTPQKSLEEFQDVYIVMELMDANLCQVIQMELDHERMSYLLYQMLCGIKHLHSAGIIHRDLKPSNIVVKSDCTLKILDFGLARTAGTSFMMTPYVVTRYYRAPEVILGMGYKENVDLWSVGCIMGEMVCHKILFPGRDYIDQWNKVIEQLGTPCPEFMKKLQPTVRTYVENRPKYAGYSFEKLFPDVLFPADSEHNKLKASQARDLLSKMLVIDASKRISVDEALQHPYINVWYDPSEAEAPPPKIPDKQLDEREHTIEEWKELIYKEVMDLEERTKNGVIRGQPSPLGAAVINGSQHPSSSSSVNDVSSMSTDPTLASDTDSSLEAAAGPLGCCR

T1 sequence (Q16539 2-360): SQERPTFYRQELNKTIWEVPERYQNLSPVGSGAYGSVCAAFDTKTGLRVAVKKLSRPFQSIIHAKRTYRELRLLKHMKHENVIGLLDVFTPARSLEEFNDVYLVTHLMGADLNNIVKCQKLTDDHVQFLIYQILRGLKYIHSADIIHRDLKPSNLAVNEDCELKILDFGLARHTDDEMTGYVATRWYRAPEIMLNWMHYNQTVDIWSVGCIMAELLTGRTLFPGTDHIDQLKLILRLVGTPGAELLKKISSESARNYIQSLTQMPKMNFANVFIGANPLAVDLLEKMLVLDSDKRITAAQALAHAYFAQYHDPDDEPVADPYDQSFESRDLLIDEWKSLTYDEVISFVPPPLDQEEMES

IC50 (p38α): 223 µM
IC50 (JNK1): 3.92 mM
Structure (SMILES): O=C1c2c(O)cccc2C([C@@H]2O[C@H](CO)[C@@H](O)[C@H](O)[C@H]2O)c2cc(CO)cc(O)c21 (some centres unmarked) [aloin]
